Test results as given in patent publication US20020009508A1, “Echinacea extract as anti-irritant and anti-aging booster in cosmetic compositions” (priority 2000, published 2002).

Tested on: IL-1a-induced PGE2 in neonatal human dermal fibroblasts
Assay: Inhibition of IL-1a-induced PGE2 production in fibroblasts (PGE2 enzyme immunoassay)
Format: cell-based
Method: Neonatal human dermal fibroblasts (passage 5-9) were seeded at a density of 7500 cells per well in 96-well tissue culture treated plates (Corning-Costar, Corning, N.Y.). The medium used was Dulbecco's Modified Eagle's Medium (DMEM), high-glucose (Gibco/Life Technologies, Gaithersburg, Md.) supplemented with 2 mM L-glutamine, 10% fetal bovine serum, and antibiotic and anti mycotic solutions (all also Life Technologies). After 48 hours, each well was rinsed twice with 200 μl serum-free DMEM and the cells dosed with 200 μl in DMEM+L-glutamine containing IL-1α at 1 ng/ml +/− active. […]
Enzyme immunoassay was performed using a commercial PGE2 kit (Amersham, Buckinghamshire, England). […] The assay is based on the competition between unlabelled PGE2 (standard or sample) and a fixed quantity of peroxidase labelled PGE2 for a limited amount of the well-bound PGE2-specific antibody. […] The Dynatech MR7000 microplate spectrophotometer (Dynatech, Chantilly, Va.) was used to quantitate color in the wells by reading absorbance at 450 nm. […]
The antiinflammatory potential of the test compounds is assessed by the ability of the compound to inhibit IL-1a-induced PGE2 and is expressed as the ratio of PGE2 produced by the cells treated with the test compound +IL-1a to PGE2 produced by the cells treated with IL-1a alone. […] Statistical significance was determined using the student's t-test.

Substance: Chicoric acid
- Ratio of PGE2 with echinacea + IL-1a/IL-1a (Table 1b, concentration 0.001%): 0.02
- Effectiveness in the PGE2 test (in words) (at 0.001%): effective
